What all share (assay): relative viability (nuclei count vs DMSO), 5 days (fraction); higher = more cells survive
Compound in test [1]: CCn1c(-c2nonc2N)nc2cnc(Oc3cccc(NC(=O)c4ccc(OCCN5CCOCC5)cc4)c3)cc21 + COc1cc2c(Oc3ccc(NC(=O)C4(C(=O)Nc5ccc(F)cc5)CC4)cc3F)ccnc2cc1OCCCN1CCOCC1 [Foretinib] (partner 0.25 µM)
In short, it runs like this: (§1)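 Relative viability was taken as the ratio of nuclei in treated wells to nuclei in vehicle wells. Lung cancer cell lines in 1536-well plates received compounds by pin tool one day after seeding, either one drug alone or a fixed anchor-drug dose plus five library-drug doses (not always all listed) in √10 steps. Nuclei were counted on 4× images after 5 days of treatment, and values are medians of duplicate plates.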

Compound in the test “Mirin + Alpelisib”: N=C1NC(=O)/C(=C/c2ccc(O)cc2)S1 [Mirin] + Cc1nc(NC(=O)N2CCC[C@H]2C(N)=O)sc1-c1ccnc(C(C)(C)C(F)(F)F)c1 [Alpelisib] (partner 2 µM)
In a few lines: as §1

Compound in test [2]: CCn1c(-c2nonc2N)nc2cnc(Oc3cccc(NC(=O)c4ccc(OCCN5CCOCC5)cc4)c3)cc21 + CS(=O)(=O)N1CCN(Cc2cc3nc(-c4cccc5[nH]ncc45)nc(N4CCOCC4)c3s2)CC1 [Pictilisib] (partner 1 µM)
In a few lines: as §1

Compound in test [3]: CCC1=CN=CN=C1N2CCN(CC2)CC3=NC4=C(N3)C=C(C=C4)C(F)(F)F + Nc1nc2[nH]cc(CCc3ccc(C(=O)N[C@@H](CCC(=O)O)C(=O)O)cc3)c2c(=O)[nH]1 [Pemetrexed] (partner 0.2 µM)
In short, it runs like this:
as §1

Consider PC-14, for which the relative viability in test [1] (first compound 0.04 µM) stood at 0.927; in test [1] (first compound 0.1265 µM), 0.84; in test [1] (first compound 0.4 µM), 0.761; in test [1] (first compound 1.265 µM) it was 0.718; in test [1] (first compound 4 µM), 0.72; with Mirin + Alpelisib (first compound 0.25 µM) it was 0.83. Besides, the relative viability was 0.915 in the test with Mirin + Alpelisib (first compound 0.7906 µM); 1.01 with Mirin + Alpelisib (first compound 2.5 µM); 0.95 with Mirin + Alpelisib (first compound 7.906 µM); 1.05 in the test with Mirin + Alpelisib (first compound 25 µM); 1.06 in test [2] (first compound 0.04 µM); 0.708 in test [2] (first compound 0.1265 µM). For the same cell line, the relative viability in test [2] (first compound 0.4 µM) turned out to be 0.751; in test [2] (first compound 1.265 µM), 0.619; in test [2] (first compound 4 µM), 0.666; in test [3] (first compound 0.04 µM), 0.135; in test [3] (first compound 0.1265 µM), 0.153; in test [3] (first compound 0.4 µM), 0.141. For the same cell line, the relative viability in test [3] (first compound 1.265 µM) was determined as 0.13; in test [3] (first compound 4 µM), 0.135.

RERF-LC-KJ: the relative viability in test [1] (first compound 0.04 µM) was found to be 1.02; in test [1] (first compound 0.1265 µM), 0.829; in test [1] (first compound 0.4 µM), 0.74; in test [1] (first compound 1.265 µM), 0.532; in test [1] (first compound 4 µM) it was 0.532; with Mirin + Alpelisib (first compound 0.25 µM), 0.822. Further, the relative viability came to 0.898 with Mirin + Alpelisib (first compound 0.7906 µM); 0.956 with Mirin + Alpelisib (first compound 2.5 µM); 0.916 in the test with Mirin + Alpelisib (first compound 7.906 µM); 0.75 in the test with Mirin + Alpelisib (first compound 25 µM); 0.541 in test [2] (first compound 0.04 µM); 0.452 in test [2] (first compound 0.1265 µM). The relative viability in test [2] (first compound 0.4 µM) worked out at 0.516; in test [2] (first compound 1.265 µM) it was 0.476; in test [2] (first compound 4 µM), 0.377; in test [3] (first compound 0.04 µM) it was 0.393; in test [3] (first compound 0.1265 µM) it was 0.455; in test [3] (first compound 0.4 µM), 0.459. For the same cell line, the relative viability in test [3] (first compound 1.265 µM) was 0.441; in test [3] (first compound 4 µM), 0.476.

As for SK-LU-1, the relative viability worked out at 0.837 in test [1] (first compound 0.04 µM); 0.621 in test [1] (first compound 0.1265 µM); 0.587 in test [1] (first compound 0.4 µM); 0.333 in test [1] (first compound 1.265 µM); 0.318 in test [1] (first compound 4 µM); 1.12 with Mirin + Alpelisib (first compound 0.25 µM). The relative viability with Mirin + Alpelisib (first compound 0.7906 µM) is 0.885; with Mirin + Alpelisib (first compound 2.5 µM), 1.07; in the test with Mirin + Alpelisib (first compound 7.906 µM), 0.698; with Mirin + Alpelisib (first compound 25 µM), 0.53; in test [2] (first compound 0.04 µM), 0.686; in test [2] (first compound 0.1265 µM), 0.448. For the same cell line, the relative viability in test [2] (first compound 0.4 µM) was determined as 0.432; in test [2] (first compound 1.265 µM), 0.336; in test [2] (first compound 4 µM), 0.416; in test [3] (first compound 0.04 µM) it was 0.892; in test [3] (first compound 0.1265 µM), 0.992; in test [3] (first compound 0.4 µM), 0.958. In addition, the relative viability worked out at 0.985 in test [3] (first compound 1.265 µM) and 0.998 in test [3] (first compound 4 µM).

In the case of SK-MES-1, the relative viability stood at 1.03 in test [1] (first compound 0.04 µM); 0.645 in test [1] (first compound 0.1265 µM); 0.502 in test [1] (first compound 0.4 µM); 0.674 in test [1] (first compound 1.265 µM); 0.638 in test [1] (first compound 4 µM); 0.976 with Mirin + Alpelisib (first compound 0.25 µM). The relative viability with Mirin + Alpelisib (first compound 0.7906 µM) was determined as 0.908; with Mirin + Alpelisib (first compound 2.5 µM), 0.994; with Mirin + Alpelisib (first compound 7.906 µM), 0.969; with Mirin + Alpelisib (first compound 25 µM) it was 0.798; in test [2] (first compound 0.04 µM), 0.365; in test [2] (first compound 0.1265 µM), 0.355. Also, the relative viability stood at 0.386 in test [2] (first compound 0.4 µM); 0.422 in test [2] (first compound 1.265 µM); 0.323 in test [2] (first compound 4 µM); 1.03 in test [3] (first compound 0.04 µM); 1.01 in test [3] (first compound 0.1265 µM); 1 in test [3] (first compound 0.4 µM). Further, the relative viability turned out to be 0.993 in test [3] (first compound 1.265 µM) and 1.03 in test [3] (first compound 4 µM).

As for SW 1573, the relative viability in test [1] (first compound 0.04 µM) came to 1.1; in test [1] (first compound 0.1265 µM), 0.926; in test [1] (first compound 0.4 µM) it was 0.527; in test [1] (first compound 1.265 µM), 0.539; in test [1] (first compound 4 µM), 0.354; in the test with Mirin + Alpelisib (first compound 0.25 µM), 0.529. In addition, the relative viability in the test with Mirin + Alpelisib (first compound 0.7906 µM) is 0.72; with Mirin + Alpelisib (first compound 2.5 µM), 0.794; with Mirin + Alpelisib (first compound 7.906 µM) it was 0.665; with Mirin + Alpelisib (first compound 25 µM), 0.508; in test [2] (first compound 0.04 µM), 0.545; in test [2] (first compound 0.1265 µM), 0.507. Also, the relative viability was found to be 0.492 in test [2] (first compound 0.4 µM); 0.487 in test [2] (first compound 1.265 µM); 0.312 in test [2] (first compound 4 µM); 0.884 in test [3] (first compound 0.04 µM); 0.947 in test [3] (first compound 0.1265 µM); 0.83 in test [3] (first compound 0.4 µM). The values for the relative viability in test [3] (first compound 1.265 µM) and in test [3] (first compound 4 µM) were 0.747 and 0.885, respectively.

Source of the values: the supplement of paper PMC10307832.
